Drawing on PubChem BioAssay (NCI), this text covers TGI for twelve compounds.

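Results reflect a 48-hour exposure of cells in 96-well plates to compound at five concentrations. TGI is the concentration that stops growth completely.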 Bounds are passed on as bounds.

Holding throughout (experiment): NCI anticancer screen, dose series, 48 h
For experiment [1], the system named is DLD-1 colon.
Experiment [2] concerns DMS 114 small cell lung.
Experiment [3] concerns DMS 273 small cell lung.
Experiment [4] concerns HCT-116 colon.
The test system of experiment [5] is HOP-18 NSCLC.
Experiment [6] concerns KM12 colon.
Experiment [7] deals with KM20L2 colon.
The test system of experiment [8] is LXFL 529 NSCLC.
Experiment [9] relates to M19-MEL melanoma.
In experiment [10] the test system is NCI-H23 lung.
The test system of experiment [11] is SF-295 CNS.
Experiment [12] deals with XF 498 CNS.
In experiment [13] the test system is SNB-78 CNS.
In experiment [14] the test system is RXF-631 renal.
Experiment [15] concerns NCI/ADR-RES ovarian.

Take `O=C1Nc2ccccc2C12CCNC2Cc1ccccc1` (stereo not drawn): the TGI in experiment [1], in experiment [2], in experiment [3], in [4], in experiment [5] and in [6] was above 100 µM in each case. Also, the TGI in experiment [7], in experiment [8], in [9], in [10], in experiment [11] and in experiment [12] was above 100 µM throughout.

For the compound `N#CC1=C(N)n2c(s/c(=C\c3ccc(Cl)cc3)c2=O)=C(c2nc3ccccc3[nH]2)C1c1ccc(Cl)cc1` (stereo not drawn), the TGI in experiment [1] is 15.4 µM; in experiment [2], 4.37 µM; in experiment [3], 6.23 µM; in experiment [4], 3.61 µM; in experiment [6] it was 3.06 µM; in experiment [7], 6.06 µM. For the same compound, the TGI in experiment [8] stood at 4.58 µM; in [9] it was 9.15 µM; in experiment [10], 1.58 µM; in experiment [12] it was 3.38 µM.

Turning to `O=C(c1ccc(Cl)cc1)c1ccc(OCCCOc2ccc(C(=O)c3ccc(Cl)cc3)cc2)cc1`, the TGI in experiment [1], in experiment [2], in experiment [3], in experiment [4], in experiment [6] and in experiment [7] was above 100 µM each time. The TGI in [8], in experiment [9], in [10], in experiment [11] and in experiment [12] was above 100 µM in each case.

As to `COc1cc2c(c(OC)c1OC)-c1ccc(SC)c(=O)cc1[C@@H](NCc1ccc(C#N)cc1)CC2`, the TGI is 0.00534 µM in experiment [2]; 0.0215 µM in [4]; 0.00388 µM in experiment [7]; above 100 µM in [8]; above 100 µM in experiment [9]; 0.00885 µM in experiment [10]. In experiment [13], this compound returned a TGI above 100 µM.

For `NC(CCCC(N)P(=O)(O)c1ccccc1)P(=O)(O)c1ccccc1` (stereo not drawn), the TGI in experiment [1], in experiment [2], in experiment [3], in experiment [4], in experiment [5] and in experiment [6] was above 261 µM throughout. The TGI in experiment [7], in experiment [8], in [9], in experiment [10], in experiment [11] and in [13] was above 261 µM in each case. Besides, in experiment [12], the TGI was above 261 µM.

For `COc1ccc(-c2cc(=O)c3cc4c(cc3[nH]2)OCO4)cc1OC`, the TGI in [1], in experiment [2], in [3], in experiment [4], in experiment [5] and in [6] was above 100 µM each time. Besides, the TGI in [7], in [8], in [9], in [10], in experiment [11] and in experiment [13] was above 100 µM in each case. In [12], this compound yielded a TGI above 100 µM.

On to `CC(C)(C)N=NNc1cn(C2OC(CO)C(O)C2O)c(=O)[nH]c1=O` (stereo not drawn), for which the TGI in [1], in [2], in experiment [3], in [4], in [5] and in [6] was above 100 µM throughout. Also, the TGI in experiment [7], in experiment [8], in experiment [9], in experiment [10], in experiment [11] and in [13] was above 100 µM each time.

With `O=C(/N=C/c1c(O)c2ccccc2oc1=O)Nc1ccccc1`, the TGI in experiment [1], in experiment [2], in experiment [3], in experiment [4], in [5] and in experiment [6] was above 100 µM throughout. For the same compound, the TGI in experiment [7], in experiment [8], in experiment [9], in [10], in experiment [11] and in experiment [13] was above 100 µM in each case. This compound also had a TGI in [12] above 100 µM.

`COc1cc2c(cc1OC)C(C(CO)CO)N(CC(O)CCl)CC2` (stereo not drawn): the TGI in experiment [1], in experiment [3], in experiment [6], in [7], in [8] and in [9] was above 100 µM in each case. In addition, the TGI in experiment [10], in experiment [14], in experiment [11], in experiment [13] and in experiment [12] was above 100 µM in each case.

Turning to `CCC12CCCN(Cc3ccccc3)C1c1c([nH]c3ccccc13)C(C(=O)OC)C2` (stereo not drawn), the TGI in experiment [4], in experiment [6], in [10], in experiment [15] and in experiment [11] was above 10 µM throughout.

Take `CCc1cc(Cc2cc(Cl)c(NC(=O)C(=O)C3NC(=O)NC3=O)c(CC)c2)cc(Cl)c1NC(=O)C(=O)C1NC(=O)NC1=O` (stereo not drawn): the TGI in experiment [2] is 83.9 µM; in experiment [3], 41.3 µM; in experiment [4] it was 94.8 µM; in [5] it was above 100 µM; in experiment [6] it was above 100 µM; in [7], above 100 µM. The TGI in experiment [8] was above 100 µM; in experiment [9], above 100 µM; in [10], 72.6 µM; in [11], above 100 µM; in [13], above 100 µM.

Regarding `S=C(NC1=NCC(CN2CCN(c3ccccc3)CC2)O1)Nc1ccccc1` (stereo not drawn), the TGI in experiment [4], in experiment [6], in [10], in experiment [15] and in [11] was above 100 µM each time.
